Reference: patent US20100222332A1, “PYRAZOLO-PYRAZINES DERIVATIVES USED AS G PROTEIN INHIBITORS” (Ipsen Pharma S.A.S., priority 2007, published 2010)
Where a name gives a salt, the structure may show the parent alone.

melting point | Compound
214 to 219 °C | N[C@@H](CSSC[C@H](N)C(=O)N1CCn2nc(-c3ccccc3)cc2[C@@H]1CC1CCCCC1)C(=O)N1CCn2nc(-c3ccccc3)cc2[C@@H]1CC1CCCCC1 (as salt: hydrochloride) [Example 24, (2R)-3-({(2R)-2-amino-3-[(4S)-4-(cyclohexylmethyl)-2-phenyl-6,7-dihydropyrazolo[1,5-a]pyrazin-5(4H)-yl]-3-oxopropyl}dithio)-1-[(4S)-4-(cyclohexylmethyl)-2-phenyl-6,7-dihydropyrazolo[1,5-a]pyrazin-5(4H)-yl]-1-oxopropan-2-amine hydrochloride]
212 to 217 °C | N[C@@H](CSSC[C@H](N)C(=O)N1CCn2nc(-c3ccccc3)cc2[C@H]1CC1CCCCC1)C(=O)N1CCn2nc(-c3ccccc3)cc2[C@H]1CC1CCCCC1 (as salt: hydrochloride) [Example 26, (1R)-3-({(2R)-2-amino-3-[(4R)-4-(cyclohexylmethyl)-2-phenyl-6,7-dihydropyrazolo[1,5-a]pyrazin-5(4H)-yl]-3-oxopropyl}dithio)-1-[(4R)-4-(cyclohexylmethyl)-2-phenyl-6,7-dihydropyrazolo[1,5-a]pyrazin-5(4H)-yl]-1-oxopropan-2-amine hydrochloride]
117 to 120 °C | CC(C)(C)OC(=O)N[C@@H](C[Se][Se]C[C@H](NC(=O)OC(C)(C)C)C(=O)N1CCn2nc(-c3ccccc3)cc2C1CC1CCCCC1)C(=O)N1CCn2nc(-c3ccccc3)cc2C1CC1CCCCC1 (mixture of isomers)
217 to 220 °C (dec.) | N[C@@H](C[Se][Se]C[C@H](N)C(=O)N1CCn2nc(-c3ccccc3)cc2C1CC1CCCCC1)C(=O)N1CCn2nc(-c3ccccc3)cc2C1CC1CCCCC1 (mixture of isomers) (as salt: hydrochloride)
218 °C (dec.) | N[C@@H](CSSC[C@H](N)C(=O)N1CCn2nc(-c3ccccc3)cc2C1CC1CCCCC1)C(=O)N1CCn2nc(-c3ccccc3)cc2C1CC1CCCCC1 (mixture of isomers) (as salt: hydrochloride) [Example 12, (2R)-3-({(2R)-2-amino-3-[(4RS)-4-(cyclohexylmethyl)-2-phenyl-6,7-dihydropyrazolo[1,5-a]pyrazin-5(4H)-yl]-3-oxopropyl}dithio)-1-[(4RS)-4-(cyclohexylmethyl)-2-phenyl-6,7-dihydropyrazolo[1,5-a]pyrazin-5(4H)-yl]-1-oxopropan-2-amine hydrochloride]
208 °C (dec.) | N[C@@H](CSSC[C@H](N)C(=O)N1CCn2nc(-c3ccccc3)cc2C1CCc1ccccc1)C(=O)N1CCn2nc(-c3ccccc3)cc2C1CCc1ccccc1 (mixture of isomers) (as salt: hydrochloride) [Example 13, (2R)-3-({(2R)-2-amino-3-oxo-3-[(4RS)-2-phenyl-4-(2-phenylethyl)-6,7-dihydropyrazolo[1,5-a]pyrazin-5(4H)-yl]propyl}dithio)-1-oxo-1-[(4RS)-2-phenyl-4-(2-phenylethyl)-6,7-dihydropyrazolo[1,5-a]pyrazin-5(4H)-yl]propan-2-amine hydrochloride]
227 °C (dec.) | N[C@@H](CSSC[C@H](N)C(=O)N1CCn2nc(-c3ccncc3)cc2C1CCc1ccccc1)C(=O)N1CCn2nc(-c3ccncc3)cc2C1CCc1ccccc1 (mixture of isomers) (as salt: hydrochloride) [Example 14, (2R)-3-({(2R)-2-amino-3-oxo-3-[(4RS)-4-(2-phenylethyl)-2-pyridin-4-yl-6,7-dihydropyrazolo[1,5-a]pyrazin-5(4H)-yl]propyl}dithio)-1-oxo-1-[(4RS)-4-(2-phenylethyl)-2-pyridin-4-yl-6,7-dihydropyrazolo[1,5-a]pyrazin-5(4H)-yl]propan-2-amine hydrochloride]
223 °C (dec.) | N[C@@H](CSSC[C@H](N)C(=O)N1CCn2nc(-c3cccnc3)cc2C1CCc1ccccc1)C(=O)N1CCn2nc(-c3cccnc3)cc2C1CCc1ccccc1 (mixture of isomers) (as salt: hydrochloride) [Example 15, (2R)-3-({(2R)-2-amino-3-oxo-3-[(4RS)-4-(2-phenylethyl)-2-pyridin-3-yl-6,7-dihydropyrazolo[1,5-a]pyrazin-5(4H)-yl]propyl}dithio)-1-oxo-1-[(4RS)-4-(2-phenylethyl)-2-pyridin-3-yl-6,7-dihydropyrazolo[1,5-a]pyrazin-5(4H)-yl]propan-2-amine hydrochloride]
221 °C (dec.) | N[C@@H](CSSC[C@H](N)C(=O)N1CCn2nc(-c3ccc4c(c3)OCO4)cc2C1CCc1ccccc1)C(=O)N1CCn2nc(-c3ccc4c(c3)OCO4)cc2C1CCc1ccccc1 (mixture of isomers) (as salt: hydrochloride) [Example 16, (2R)-3-({(2R)-2-amino-3-[(4RS)-2-(1,3-benzodioxol-5-yl)-4-(2-phenylethyl)-6,7-dihydropyrazolo[1,5-a]pyrazin-5(4H)-yl]-3-oxopropyl}dithio)-1-[(4RS)-2-(1,3-benzodioxol-5-yl)-4-(2-phenylethyl)-6,7-dihydropyrazolo[1,5-a]pyrazin-5(4H)-yl]-1-oxopropan-2-amine hydrochloride]
211 °C (dec.) | COc1cc(-c2cc3n(n2)CCN(C(=O)[C@@H](N)CSSC[C@H](N)C(=O)N2CCn4nc(-c5cc(OC)c(OC)c(OC)c5)cc4C2CCc2ccccc2)C3CCc2ccccc2)cc(OC)c1OC (mixture of isomers) (as salt: hydrochloride) [Example 17, (2R)-3-({(2R)-2-amino-3-oxo-3-[(4RS)-4-(2-phenylethyl)-2-(3,4,5-trimethoxyphenyl)-6,7-dihydropyrazolo[1,5-a]pyrazin-5(4H)-yl]propyl}dithio)-1-oxo-1-[(4RS)-4-(2-phenylethyl)-2-(3,4,5-trimethoxyphenyl)-6,7-dihydropyrazolo[1,5-a]pyrazin-5(4H)-yl]propan-2-amine hydrochloride]
218 °C (dec.) | N[C@@H](CSSC[C@H](N)C(=O)N1CCn2nc(-c3cccs3)cc2C1CCc1ccccc1)C(=O)N1CCn2nc(-c3cccs3)cc2C1CCc1ccccc1 (mixture of isomers) (as salt: hydrochloride) [Example 18, (2R)-3-({(2R)-2-amino-3-oxo-3-[(4RS)-4-(2-phenylethyl)-2-(2-thienyl)-6,7-dihydropyrazolo[1,5-a]pyrazin-5(4H)-yl]propyl}dithio)-1-oxo-1-[(4RS)-4-(2-phenylethyl)-2-(2-thienyl)-6,7-dihydropyrazolo[1,5-a]pyrazin-5(4H)-yl]propan-2-amine hydrochloride]
207 °C (dec.) | N[C@@H](CSSC[C@H](N)C(=O)N1CCn2nc(-c3ccco3)cc2C1CCc1ccccc1)C(=O)N1CCn2nc(-c3ccco3)cc2C1CCc1ccccc1 (mixture of isomers) (as salt: hydrochloride) [Example 19, (2R)-3-({(2R)-2-amino-3-[(4RS)-2-(2-furyl)-4-(2-phenylethyl)-6,7-dihydropyrazolo[1,5-a]pyrazin-5(4H)-yl]-3-oxopropyl}dithio)-1-[(4RS)-2-(2-furyl)-4-(2-phenylethyl)-6,7-dihydropyrazolo[1,5-a]pyrazin-5(4H)-yl]-1-oxopropan-2-amine hydrochloride]
199 to 204 °C (dec.) | CCCCCC1c2cc(-c3ccccc3)nn2CCN1C(=O)[C@@H](N)CSSC[C@H](N)C(=O)N1CCn2nc(-c3ccccc3)cc2C1CCCCC (mixture of isomers) (as salt: hydrochloride) [Example 20, (2R)-3-({(2R)-2-amino-3-oxo-3-[(4RS)-4-pentyl-2-phenyl-6,7-dihydropyrazolo[1,5-a]pyrazin-5(4H)-yl]propyl}dithio)-1-oxo-1-[(4RS)-4-pentyl-2-phenyl-6,7-dihydropyrazolo[1,5-a]pyrazin-5(4H)-yl]propan-2-amine hydrochloride]
210 to 215 °C (dec.) | CCCCC1c2cc(-c3ccccc3)nn2CCN1C(=O)[C@@H](N)CSSC[C@H](N)C(=O)N1CCn2nc(-c3ccccc3)cc2C1CCCC (mixture of isomers) (as salt: hydrochloride) [Example 21, (2R)-3-({(2R)-2-amino-3-[(4RS)-4-butyl-2-phenyl-6,7-dihydropyrazolo[1,5-a]pyrazin-5(4H)-yl]-3-oxopropyl}dithio)-1-[(4RS)-4-butyl-2-phenyl-6,7-dihydropyrazolo[1,5-a]pyrazin-5(4H)-yl]-1-oxopropan-2-amine hydrochloride]
198 to 202 °C | N[C@@H](CSSC[C@H](N)C(=O)N1CCn2nc(-c3ccc(Cl)cc3Cl)cc2C1CCc1ccccc1)C(=O)N1CCn2nc(-c3ccc(Cl)cc3Cl)cc2C1CCc1ccccc1 (mixture of isomers) (as salt: hydrochloride) [Example 22, (2R)-3-({(2R)-2-amino-3-[(4RS)-2-(2,4-dichlorophenyl)-4-(2-phenylethyl)-6,7-dihydropyrazolo[1,5-a]pyrazin-5(4H)-yl]-3-oxopropyl}dithio)-1-[(4RS)-2-(2,4-dichlorophenyl)-4-(2-phenylethyl)-6,7-dihydropyrazolo[1,5-a]pyrazin-5(4H)-yl]-1-oxopropan-2-amine hydrochloride]
198 to 208 °C | N[C@@H](CSSC[C@H](N)C(=O)N1CCCn2nc(-c3ccccc3)cc2C1CC1CCCCC1)C(=O)N1CCCn2nc(-c3ccccc3)cc2C1CC1CCCCC1 (mixture of isomers) (as salt: hydrochloride) [Example 28, {(1R)-1-[({(2R)-2-amino-3-[(4RS)-4-(cyclohexylmethyl)-2-phenyl-7,8-dihydro-4H-pyrazolo[1,5-a][1,4]diazepin-5(6H)-yl]-3-oxopropyl}dithio)methyl]-2-[(4RS)-4-(cyclohexylmethyl)-2-phenyl-7,8-dihydro-4H-pyrazolo[1,5-a][1,4]diazepin-5(6H)-yl]-2-oxoethyl}amine hydrochloride]
232 to 234 °C (dec.) | N[C@@H](CSSC[C@H](N)C(=O)N1CCn2nc(-c3ccccn3)cc2C1CCc1ccccc1)C(=O)N1CCn2nc(-c3ccccn3)cc2C1CCc1ccccc1 (mixture of isomers) (as salt: hydrochloride) [Example 32, (2R)-3-({(2R)-2-amino-3-oxo-3-[(4RS)-4-(2-phenylethyl)-2-pyridin-2-yl-6,7-dihydropyrazolo[1,5-a]pyrazin-5(4H)-yl]propyl}dithio)-1-oxo-1-[(4RS)-4-(2-phenylethyl)-2-pyridin-2-yl-6,7-dihydropyrazolo[1,5-a]pyrazin-5(4H)-yl]propan-2-amine hydrochloride]
